What was measured:
Assay type in all cases: cell-based, human
[1] = test system: AUA reporter; assay: Creation of a START codon (AUA to AUI), EGFPd2/dTomato reporter, flow cytometry; details: 48 hours post-transfection, n=3
Excerpt: To test this, an ADAR substrate was designed composed of a dsRNA hairpin containing both an AUA-codon with a mismatch at the second adenine to promote specific deamination to AUI (as opposed to IUA or IUI) and an MS2 operator motif (see e.g., FIG. 26b). The design of one large dsRNA hairpin was chosen to promote correct folding of RNA secondary structures. Previous studies have shown that MS2 operators in the 5′UTR of eukaryotic mRNA can lead to decreased translational efficiency when co-expressed with its corresponding coat protein (MS2 coat protein, or MCP), so high and low affinity variants of the MS2 operator (called here MS2-C and MS2-A respectively for the base at the stem loop) were tested with the idea that the lower affinity MS2-A loop would be less likely to inhibit translation by coat protein alone. As positive controls, the same loops were also designed with the correct AUG start codon.
These designs were cloned into pcDNA3 vectors containing a bidirectional CMV promoter driving constitutive dTomato and EGFPd2 (see e.g., FIG. 26c). The S′UTR and start codon of EGFPd2 were replaced with the editable start codon designs so the translational efficiency could be measured by looking at the EGFPd2 fluorescence relative to dTomato when co-expressed with MCP-ADAR. In this construct, if the correct start codon is skipped, the next AUG codon leads to a short, out of frame translation product.
HEK293FT cells were co-transfected with each of the reporter constructs (MS2-C w/ AUG start, MS2-C w/ AUA start, MS2-A w/ AUG start, and MS2-A w/ AUA start) and either filler DNA, inactivated ADAR2-DD (E396A) fused to MCP (MCP-dADAR), or active ADAR2-DD (E488Q) fused to MCP (MCP-ADAR). 48 hours post-transfection, cells were lifted and analyzed by flow cytometry. Transfected cells were gated by dTomato, and the median EGFPd2-to-dTomato ratio for the population was calculated per replicate (n=3) by FLOWJO. 2-Way ANOVA was performed to determine significance.

[2] = test system: mRNA reporters containing different number of stop codons and/or MS2 elements; assay: Stop codon editing assay by Western blot; details: HEK293FT cells; reporters with different numbers of stop codons and RNA elements
Excerpt: HEK 293 FT cells were co-transfected with plasmids expressing the reporter containing 2 UAG stop codons in the hairpin and a pcDNA3 construct encoding a fusion protein composed of MCP, ADAR2-DD (E488Q), and TagBFP.

[3] = test system: Non-Stop-Decay reporter construct; assay: Non-stop decay OFF-switch reporter (dTomato-BiCMV-EGFPd2); details: biCMV reporter with 2 UAG stop codons; 48-hours post-transfection
Excerpt: In order to do so, the inventors designed a synthetic transcript (FIG. 2A) where there is an open reading frame (green), 1 or more stop codons in an RNA-hairpin (dark gray), a specific RNA element (light gray), and a 3′UTR with no downstream stop codons prior to the polyadenylate (polyA) tail. The inventors created a reporter plasmid that contained a bidirectional CMV driving the expression dTomato on one transcript and EGFPd2, an editable stop codon, an MS2 operator, and a mutated rabbit-β-globin 3′UTR/poly A signal sequence lacking additional stop codons on the other transcript (FIG. 2B). In the absence of ADAR-DD activity, both dTomato and EGFPd2 should be translated and expressed. However, coexpression of MCP-ADAR2 should lead to editing of the only in-frame stop codon and the initiation of an endogenous process called non-stop decay, whereby the translating ribosome stalls on the polyA-tail and recruits Ski7 followed by exonucleases to destroy the mRNA (FIG. 2C). In this process, proteosomal degradation of the nascent, unreleased polypeptide also occurs. […]
As a final test, the inventors used the MS1(117A)/Mcl-1 variant with the dTomato-BiCMV-EGFPd2 reporter plasmid (FIG. 2B), which should lose EGFPd2 fluorescence with ADAR editing of the final stop codon.

[4] = test system: GFP-GPI reporter; assay: AUA to AUI editing creating upstream in-frame signal sequence and HA tag, live imaging and HA staining
Excerpt: To test this, a reporter construct was designed that contained: an MS2-A editable AUA start codon upstream of the murine IgGκ signal sequence and HA epitope tag (SS-HA), an in frame AUG start codon, GFP, and the glycosylphosphatidylinositol (GPI) anchor sequence from Thymocyte differentiation antigen 1 (GPI in diagram) (see e.g., FIG. 27a). With this reporter, in the absence of editing, the majority of the translated product will be from the AUG codon directly upstream of GFP. This will lead to the translation product residing in the cytoplasm with a non-functional GPI anchor (as this post-translational modification (PTM) must occur in the endoplasmic reticulum (ER) lumen). Upon ADAR editing of the upstream AUA to AUI, translation will initiate upstream of the signal sequence, leading to co-translational translocation of HA-GFP-GPI into the ER lumen, the addition of the GPI anchor PTM, and presentation of HA-GFP on the plasma membrane (see e.g., FIG. 27b). With this construct, the editing can be monitored by either by microscopy (looking for ER & plasma membrane localization) or directly by immunostaining for the HA-tag.
HEK cells were co-transfected with the GFP-GPI reporter and either filler DNA, MCP-dADAR, or MCP-ADAR. A GFP-GPI with a functional start codon before the secretion signal was also transfected as a positive control (GFP-GPI Control). One day after transfection, HEK cells were imaged live, and then fixed and stained for HA tag with a primary anti-HA antibody and a secondary antibody that was conjugated to ALEXAFLUOR 647 (AF647).

MCP-linker-ADAR2(E488Q)-TagBFP [MCP-ADAR]
effect on translational efficiency from a native AUG start codon, MS2-A substrate [1]: more modest negative effect on translational efficiency
increase of relative fluorescence, MS2-C w/ AUA reporter, relative to NT [1]: not significant
relative EGFPd2/dTomato fluorescence, MS2-A w/ AUA substrate [1]: significant increase
relative fluorescence (EGFPd2-to-dTomato) of MS2-C reporters compared with filler DNA (NT) ([1]; 2-Way ANOVA): significantly decreased the relative fluorescence
off-target editing of stop-codon reporters, Western blot (HA-mNeonGreen) [2]: Almost no off-target editing
EGFPd2 expression relative to catalytically inactive DD, fluorescence microscopy [3]: greatly decreased EGFPd2 expression levels
HA tag staining of cells with AUA construct ([4]; fixed, permeabilized, anti-HA and AF647 secondary): robust staining
cellular distribution of GFP from AUA-SS-GFP-GPI, live imaging ([4]; one day after transfection): looked very similar

Source: patent publication US12565665B2, “Compositions and methods for controlled mRNA translation and stability” (TRUSTEES OF BOSTON UNIVERSITY, priority 2022, dated 2026)
